Data as given in patent US20210172002A1, “DETECTING CELL VITALITY” (THE UNIVERSITY OF WARWICK, priority 2018, published 2021).

Columns and labels:
B. subtilis = assay: Fluorescence response to an electric field in a mixed culture in the presence of vancomycin (FIG. 6); type: cell-based, Bacillus subtilis; settings: vancomycin treated B. subtilis cells in mixed culture with E. coli; trace 601 of FIG. 6
Source text: (§1) In an experimental setup, bacterial cells were inoculated on agarose pads and placed on the electrode surface, enabling monitoring of cells at single-cell resolution by microscopy. The membrane potential dynamics of cells was monitored using the fluorescent Nernstian indicator dye, Thioflavin T (ThT), which has been used extensively with bacteria.
The sample (shown in FIG. 3) was subjected to alternating 3V pulses at a frequency of 100 Hz for 2.5 seconds. The mean response 501 of ten UV-treated cells is shown in FIG. 5 alongside the mean response 502 of ten non-UV-treated cells.
(§2) In the mixed culture. […] The presence of E. coli or other coliforms could therefore be confirmed through fluorescence analysis of a sample treated with a selective antibiotic such as vancomycin.

E. coli = assay: as above; type: cell-based, Escherichia coli; settings: E. coli cells in mixed culture with B. subtilis in the presence of vancomycin; trace 602 of FIG. 6
Source text: as §1
When a series of electrical pulses (±1.5 V AC 0.1 kHz for 2.5 seconds) were applied to E. coli (K12 strain) cells placed in the electrode gaps, the pulses caused hyperpolarization (seen by an increase of ThT fluorescence signal) in vital cells. FIG. 3 illustrates the effect of applying an electric field across a sample 304 as viewed between a pair of opposing electrodes 301, 302 in an apparatus of the type illustrated in FIG. 1. […] An electric field was then applied, and the image shown represents the difference in fluorescence over a period of time after the application of the electric field. […] This provides a clear indication that the change in fluorescence is an indication of the vitality of cells within the sample.
as §2

CN[C@H](CC(C)C)C(=O)N[C@H]1C(=O)N[C@@H](CC(N)=O)C(=O)N[C@H]2C(=O)N[C@H]3C(=O)N[C@H](C(=O)N[C@H](C(=O)O)c4cc(O)cc(O)c4-c4cc3ccc4O)[C@H](O)c3ccc(c(Cl)c3)Oc3cc2cc(c3O[C@@H]2O[C@H](CO)[C@@H](O)[C@H](O)[C@H]2O[C@H]2C[C@](C)(N)[C@H](O)[C@H](C)O2)Oc2ccc(cc2Cl)[C@H]1O [vancomycin]
log of a fluorescent response (membrane potential change) (B. subtilis): depolarization | log of a fluorescent response (membrane potential change) (E. coli): hyperpolarized
